Columns and labels:
[1] = molecular target: T1, PI3K-delta (Homo sapiens, UniProt O00329); assay: HTRF PI3K biochemical assay, delta isoform; details: form screened (neutral or TFA salt) given, read-out: PI3Kdelta IC50
T1 construct: purchased Upstate; Millipore 14-604

[2] = molecular target: T2, PI3K-alpha (Homo sapiens, UniProt P42336); assay: HTRF PI3K biochemical assay, alpha isoform; details: ratio PI3K-alpha IC50 value / PI3K-delta IC50 value
T2 construct: purchased Upstate; Millipore 14-602
T2 sequence (P42336 whole entry, canonical isoform): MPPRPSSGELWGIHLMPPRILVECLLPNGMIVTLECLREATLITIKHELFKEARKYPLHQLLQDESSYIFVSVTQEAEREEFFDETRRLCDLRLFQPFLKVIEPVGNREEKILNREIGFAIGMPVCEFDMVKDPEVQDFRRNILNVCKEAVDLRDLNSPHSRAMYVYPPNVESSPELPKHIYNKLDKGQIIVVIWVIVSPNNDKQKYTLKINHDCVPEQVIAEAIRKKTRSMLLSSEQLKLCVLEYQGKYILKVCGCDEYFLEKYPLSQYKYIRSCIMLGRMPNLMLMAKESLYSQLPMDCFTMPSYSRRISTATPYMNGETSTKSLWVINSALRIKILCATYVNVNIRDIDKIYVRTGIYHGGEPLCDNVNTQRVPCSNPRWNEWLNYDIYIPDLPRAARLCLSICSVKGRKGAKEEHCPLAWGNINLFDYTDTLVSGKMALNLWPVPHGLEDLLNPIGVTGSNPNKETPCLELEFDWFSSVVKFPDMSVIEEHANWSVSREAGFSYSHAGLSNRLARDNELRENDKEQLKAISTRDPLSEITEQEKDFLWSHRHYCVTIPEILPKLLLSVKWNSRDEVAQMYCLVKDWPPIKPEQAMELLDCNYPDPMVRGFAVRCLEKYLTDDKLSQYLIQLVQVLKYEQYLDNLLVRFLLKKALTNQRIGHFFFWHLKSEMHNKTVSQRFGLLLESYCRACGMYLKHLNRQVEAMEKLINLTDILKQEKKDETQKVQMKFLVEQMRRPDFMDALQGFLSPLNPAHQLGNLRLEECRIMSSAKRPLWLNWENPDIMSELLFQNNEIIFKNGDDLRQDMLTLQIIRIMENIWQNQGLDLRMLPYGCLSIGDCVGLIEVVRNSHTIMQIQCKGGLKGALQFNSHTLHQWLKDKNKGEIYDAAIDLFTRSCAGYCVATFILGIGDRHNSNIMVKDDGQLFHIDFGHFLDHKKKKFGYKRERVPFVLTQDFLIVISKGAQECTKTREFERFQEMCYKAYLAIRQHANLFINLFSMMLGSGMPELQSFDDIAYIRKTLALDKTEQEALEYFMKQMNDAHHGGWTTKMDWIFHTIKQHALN
T2 sequence (P27986 whole entry partner, canonical isoform): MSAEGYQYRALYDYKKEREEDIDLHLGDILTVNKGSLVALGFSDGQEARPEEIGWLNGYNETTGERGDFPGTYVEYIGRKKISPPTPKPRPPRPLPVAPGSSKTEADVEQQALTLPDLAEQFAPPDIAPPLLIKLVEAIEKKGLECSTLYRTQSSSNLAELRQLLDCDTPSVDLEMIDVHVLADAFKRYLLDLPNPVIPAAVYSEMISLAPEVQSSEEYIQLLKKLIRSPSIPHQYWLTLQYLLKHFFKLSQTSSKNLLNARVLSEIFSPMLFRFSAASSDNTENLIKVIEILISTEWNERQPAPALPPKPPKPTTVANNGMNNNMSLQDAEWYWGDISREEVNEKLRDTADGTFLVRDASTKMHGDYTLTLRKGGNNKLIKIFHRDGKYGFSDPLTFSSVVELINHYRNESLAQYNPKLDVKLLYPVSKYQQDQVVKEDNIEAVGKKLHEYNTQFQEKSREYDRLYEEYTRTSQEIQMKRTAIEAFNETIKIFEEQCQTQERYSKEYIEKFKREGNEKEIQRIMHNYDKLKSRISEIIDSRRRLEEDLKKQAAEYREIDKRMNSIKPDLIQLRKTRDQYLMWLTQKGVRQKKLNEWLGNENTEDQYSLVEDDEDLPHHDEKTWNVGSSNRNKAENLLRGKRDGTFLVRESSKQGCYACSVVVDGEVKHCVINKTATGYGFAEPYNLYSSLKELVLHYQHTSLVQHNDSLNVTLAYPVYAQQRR

T1 sequence (O00329 whole entry, canonical isoform): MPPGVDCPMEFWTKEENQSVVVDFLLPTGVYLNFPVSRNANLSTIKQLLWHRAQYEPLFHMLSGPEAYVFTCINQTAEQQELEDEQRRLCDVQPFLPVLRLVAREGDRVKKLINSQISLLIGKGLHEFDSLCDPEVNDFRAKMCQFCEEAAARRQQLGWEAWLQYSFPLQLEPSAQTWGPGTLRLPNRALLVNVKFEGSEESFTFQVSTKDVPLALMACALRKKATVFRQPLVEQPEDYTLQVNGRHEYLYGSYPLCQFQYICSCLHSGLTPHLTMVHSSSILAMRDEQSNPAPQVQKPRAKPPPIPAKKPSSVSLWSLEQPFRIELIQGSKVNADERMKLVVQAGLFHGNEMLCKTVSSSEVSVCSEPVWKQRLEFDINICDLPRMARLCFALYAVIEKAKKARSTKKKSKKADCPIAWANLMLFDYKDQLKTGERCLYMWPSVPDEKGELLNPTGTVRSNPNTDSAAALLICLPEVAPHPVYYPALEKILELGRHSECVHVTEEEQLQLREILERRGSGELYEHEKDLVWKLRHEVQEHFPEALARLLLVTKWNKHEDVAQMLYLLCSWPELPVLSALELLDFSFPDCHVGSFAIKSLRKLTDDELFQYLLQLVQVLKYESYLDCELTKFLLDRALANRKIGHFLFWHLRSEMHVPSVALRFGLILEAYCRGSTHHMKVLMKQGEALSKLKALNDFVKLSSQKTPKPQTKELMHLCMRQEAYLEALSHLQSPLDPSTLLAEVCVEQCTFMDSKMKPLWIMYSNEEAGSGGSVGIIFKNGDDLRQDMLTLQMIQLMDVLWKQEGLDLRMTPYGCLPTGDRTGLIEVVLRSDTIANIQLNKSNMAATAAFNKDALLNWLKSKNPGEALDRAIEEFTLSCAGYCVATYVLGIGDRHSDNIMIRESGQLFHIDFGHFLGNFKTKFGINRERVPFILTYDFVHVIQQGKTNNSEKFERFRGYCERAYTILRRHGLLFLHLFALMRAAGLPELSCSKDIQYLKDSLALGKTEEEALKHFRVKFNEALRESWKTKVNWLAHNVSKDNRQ
T1 sequence (P27986 whole entry partner, canonical isoform): as the sequence (P27986 whole entry partner, canonical isoform) above

IC50 [1] | Selectivity versus PI3Kalpha [2] | SMILES
12 nM | >10 | CCn1c(-c2cnc(C)nc2)nc2c(N[C@H]3C[C@H](C(=O)NC)N(C(=O)C4CC4)C3)ncnc21 [Compound 15-3, (4S)-1-(cyclopropylcarbonyl)-4-{[9-ethyl-8-(2-methylpyrimidin-5-yl)-9H-purin-6-yl]amino}-N-methyl-D-prolinamide]
15 nM | >10 | CCn1c(-c2cnc(C)nc2)nc2c(N[C@H]3C[C@H](C(=O)NC(C)C)N(C(=O)C4CC4)C3)ncnc21 [Compound 15-4, (4S)-1-(cyclopropylcarbonyl)-4-{[9-ethyl-8-(2-methylpyrimidin-5-yl)-9H-purin-6-yl]amino}-N-(1-methylethyl)-D-prolinamide]
3 nM | >10 | CCn1c(-c2cnc(C)nc2)nc2c(N[C@H]3C[C@H](C(N)=O)N(C(=O)C4CC4)C3)ncnc21 [Compound 15-5, (4S)-1-(cyclopropylcarbonyl)-4-{[9-ethyl-8-(2-methylpyrimidin-5-yl)-9H-purin-6-yl]amino}-D-prolinamide]
20 nM | >10 | CCn1c(-c2cnc(C)nc2)nc2c(N[C@H]3C[C@H](C(=O)N[C@@H](C)C(C)C)N(C(=O)C4CC4)C3)ncnc21 [Compound 15-6, (4S)-1-(cyclopropylcarbonyl)-N-[(1S)-1,2-dimethylpropyl]-4-{[9-ethyl-8-(2-methylpyrimidin-5-yl)-9H-purin-6-yl]amino}-D-prolinamide]
5.8 nM | >10 | CCn1c(-c2cnc(C)nc2)nc2c(N[C@H]3C[C@H](C(=O)NCCO)N(C(=O)C4CC4)C3)ncnc21 [Compound 15-7, (4S)-1-(cyclopropylcarbonyl)-4-{[9-ethyl-8-(2-methylpyrimidin-5-yl)-9H-purin-6-yl]amino}-N-(2-hydroxyethyl)-D-prolinamide]
8.8 nM | >10 | CCn1c(-c2cnc(C)nc2)nc2c(N[C@H]3C[C@H](C(=O)NCCN(C)C)N(C(=O)C4CC4)C3)ncnc21 [Compound 15-8, (4S)-1-(cyclopropylcarbonyl)-N-[2-(dimethylamino)ethyl]-4-{[9-ethyl-8-(2-methylpyrimidin-5-yl)-9H-purin-6-yl]amino}-D-prolinamide]
46 nM | >10 | CCn1c(-c2cnc(C)nc2)nc2c(N[C@H]3C[C@@H](C(=O)NC)N(C(=O)C4CC4)C3)ncnc21 [Compound 15-9, (4S)-1-(cyclopropylcarbonyl)-4-{[9-ethyl-8-(2-methylpyrimidin-5-yl)-9H-purin-6-yl]amino}-N-methyl-L-prolinamide]
60 nM | >10 | CCn1c(-c2cnc(C)nc2)nc2c(N[C@H]3C[C@@H](C(N)=O)N(C(=O)C4CC4)C3)ncnc21 [Compound 15-10, (4S)-1-(cyclopropylcarbonyl)-4-{[9-ethyl-8-(2-methylpyrimidin-5-yl)-9H-purin-6-yl]amino}-L-prolinamide]
7.7 nM | >10 | CCn1c(-c2cnc(C)nc2)nc2c(N[C@H]3C[C@H](C(N)=O)N(c4ccccn4)C3)ncnc21 [Compound 15-11, (4S)-4-{[9-ethyl-8-(2-methylpyrimidin-5-yl)-9H-purin-6-yl]amino}-1-pyridin-2-yl-D-prolinamide]
4.6 nM | >10 | CCn1c(-c2cnc(C)nc2)nc2c(N[C@H]3C[C@H](C(=O)NCCO)N(c4ccccn4)C3)ncnc21 [Compound 15-12, (4S)-4-{[9-ethyl-8-(2-methylpyrimidin-5-yl)-9H-purin-6-yl]amino}-N-(2-hydroxyethyl)-1-pyridin-2-yl-D-prolinamide]
29 nM | >10 | CCn1c(-c2cnc(C)nc2)nc2c(N[C@H]3CN[C@@H](C(=O)N(C)C4CC4)C3)ncnc21 [Compound 15-13, (4R)-N-cyclopropyl-4-{[9-ethyl-8-(2-methylpyrimidin-5-yl)-9H-purin-6-yl]amino}-N-methyl-D-prolinamide]
39 nM | >10 | CCn1c(-c2cnc(C)nc2)nc2c(N[C@H]3C[C@H](c4nnc(C)o4)N(C(=O)C4CC4)C3)ncnc21 [Compound 15-14, N-[(3S,5R)-1-(cyclopropylcarbonyl)-5-(5-methyl-1,3,4-oxadiazol-2-yl)pyrrolidin-3-yl]-9-ethyl-8-(2-methylpyrimidin-5-yl)-9H-purin-6-amine]
1.9 nM | >10 | CCn1c(C#Cc2ccccc2)nc2c(N[C@H]3CCN(C(=O)C4CC4)C3)ncnc21 [Compound 16-1, N-[(3S)-1-(cyclopropylcarbonyl)pyrrolidin-3-yl]-9-ethyl-8-(phenylethynyl)-9H-purin-6-amine]
20 nM | >10 | CCn1c(C#Cc2cncnc2)nc2c(N[C@H]3CCN(C(=O)C4CC4)C3)ncnc21 [Compound 16-2, N-[(3S)-1-(cyclopropylcarbonyl)pyrrolidin-3-yl]-9-ethyl-8-(pyrimidin-5-ylethynyl)-9H-purin-6-amine]
63 nM | >10 | CCn1c(C#CCOC)nc2c(N[C@H]3CCN(C(=O)C4CC4)C3)ncnc21 [Compound 16-3, N-[(3S)-1-(cyclopropylcarbonyl)pyrrolidin-3-yl]-9-ethyl-8-(3-methoxyprop-1-yn-1-yl)-9H-purin-6-amine]
48 nM | >10 | CCn1c(C#CCO)nc2c(N[C@H]3CCN(C(=O)C4CC4)C3)ncnc21 [Compound 16-4, 3-(6-{[(3S)-1-(cyclopropylcarbonyl)pyrrolidin-3-yl]amino}-9-ethyl-9H-purin-8-yl)prop-2-yn-1-ol]
